Data from ChEMBL document CHEMBL1125854, “Synthesis of substituted 5-amino-8-phenyl-3H,6H-1,4,5a,8a-tetraazaacenaphthalen-3-ones, a new class of agents for the improvement of cognition” (1991).
Several values for one entry are separate records, joined by “and”; a condition that tells them apart may be missing. Equal values may be shown once.

What was measured:
Format in all cases: functional
Mus musculus [1] = test: Tested for hypoxic survival test by 100 mg/kg intraperitoneal administration and percent survival of mice was reported.; conditions: ip
Mus musculus [2] = test: Attenuation of anoxic-induced amnesia in mice treated with 25 mg/kg compound administered intraperitoneally was determined; conditions: route intraperitoneal
Mus musculus [3] = test: Survival of mice after intraperitoneal administration of 100 mg/kg compound by using hypoxic survival test was determined; conditions: ip
Mus musculus [4] = test: Attenuation of anoxic-induced amnesia in mice treated with 100 mg/kg compound administered intraperitoneally was determined; 153-209; conditions: route intraperitoneal
Mus musculus [5] = test: (§1) Attenuation of anoxic-induced amnesia in mice treated with 100 mg/kg compound administered intraperitoneally was determined; conditions: route intraperitoneal
Mus musculus [6] = test: as §1; conditions: route intraperitoneal; remark: listed apart in the source
Mus musculus [7] = test: Survival of mice after intraperitoneal administration of 50 mg/kg compound by using hypoxic survival test was determined; conditions: ip
Mus musculus [8] = test: Attenuation of anoxic-induced amnesia in mice treated with 10 mg/kg compound administered intraperitoneally was determined; conditions: route intraperitoneal
Mus musculus [9] = test: Attenuation of anoxic-induced amnesia in mice treated with 0.1 mg/kg compound administered intraperitoneally was determined; conditions: route intraperitoneal
Mus musculus [10] = test: Tested for hypoxic survival test by 0.125 mg/kg intraperitoneal administration and percent survival of mice was reported; Value ranges from 60-80; conditions: ip

CCNc1nc(=O)c2cnn3c2n1CC=C3c1ccccc1
survival at 100 mg/kg (Mus musculus [1]): 73%

CCCCNc1nc(=O)c2cnn3c2n1CC=C3c1ccccc1
Improvement (Mus musculus [2]): 67% | Latency (Mus musculus [2]): 127 s and 132 s | survival at 100 mg/kg (Mus musculus [1]): 70%

CC(C)Nc1nc(=O)c2cnn3c2n1CC=C3c1cccc(C(F)(F)F)c1
survival at 100 mg/kg (Mus musculus [3]): 15%

CC(C)CNc1nc(=O)c2cnn3c2n1CC=C3c1cccc(C(F)(F)F)c1
Improvement (Mus musculus [4]): 209% | Latency (Mus musculus [5]): 218 s | Latency (Mus musculus [6]): 51 s | survival at 50 mg/kg (Mus musculus [7]): 50%

CC(C)Nc1nc(=O)c2cnn3c2n1CC=C3c1ccccc1
survival at 100 mg/kg (Mus musculus [1]): 20%

CCNc1nc(=O)c2cnn3c2n1CC=C3c1cccc(C(F)(F)F)c1
survival at 100 mg/kg (Mus musculus [3]): 65%

CNc1nc(=O)c2cnn3c2n1CC=C3c1ccccc1
survival at 100 mg/kg (Mus musculus [1]): 95%

Nc1nc(=O)c2cnn3c2n1CC=C3c1cccc(C(F)(F)F)c1
Latency (Mus musculus [8]): 102 s | Improvement (Mus musculus [6]): 20% | Latency (Mus musculus [6]): 180 s | survival at 100 mg/kg (Mus musculus [1]): 68%

CCCCNc1nc(=O)c2cnn3c2n1CC=C3c1cccc(C(F)(F)F)c1
survival at 100 mg/kg (Mus musculus [3]): 58%

CC(C)CNc1nc(=O)c2cnn3c2n1CC=C3c1ccccc1
survival at 100 mg/kg (Mus musculus [1]): 30%

CNC(=O)Oc1ccc2c(c1)[C@]1(C)CCN(C)[C@@H]1N2C [PHYSOSTIGMINE]
Improvement (Mus musculus [9]): 36% | survival at 0.125 mg/kg (Mus musculus [10]): 60%
